According to patent US20210261569A1, “FUSED HETEROCYCLIC DERIVATIVES HAVING SELECTIVE BACE1 INHIBITORY ACTIVITY” (Shionogi & Co., Ltd., priority 2018, published 2021):

How the values were obtained:
[1] = target: T1, recombinant BACE1 protein (Homo sapiens, UniProt P56817); experiment: BACE1 biochemical FRET based assay; settings: for Selectivity: BACE2 IC50 relative to BACE1 IC50; for IC50: FRET, pH 5.0, 450 min at room temperature
T1 construct: recombinant BACE1 protein in a final concentration of 0.04 μg/mL
T1 sequence (P56817 46-501): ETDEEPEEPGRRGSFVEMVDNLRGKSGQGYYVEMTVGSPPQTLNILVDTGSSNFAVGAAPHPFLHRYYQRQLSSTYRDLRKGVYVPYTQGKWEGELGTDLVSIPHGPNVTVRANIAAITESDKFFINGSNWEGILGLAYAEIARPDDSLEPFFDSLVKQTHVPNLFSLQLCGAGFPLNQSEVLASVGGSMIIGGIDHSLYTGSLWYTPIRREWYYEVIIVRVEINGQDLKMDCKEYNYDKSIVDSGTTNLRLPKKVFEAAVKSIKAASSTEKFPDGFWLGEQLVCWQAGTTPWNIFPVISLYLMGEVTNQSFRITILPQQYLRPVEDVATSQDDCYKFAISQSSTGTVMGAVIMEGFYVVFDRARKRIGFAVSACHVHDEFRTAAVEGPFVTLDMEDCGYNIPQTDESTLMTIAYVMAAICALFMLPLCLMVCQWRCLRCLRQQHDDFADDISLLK
Text: (§1) This assay is a Fluorescence Resonance Energy Transfer Assay (FRET) based assay. The substrate for this assay is an APP derived 13 amino acids peptide that contains the ‘Swedish’ Lys-Met/Asn-Leu mutation of the amyloid precursor protein (APP) beta-site secretase cleavage site. This substrate also contains two fluorophores: (7-methoxycoumarin-4-yl) acetic acid (Mca) is a fluorescent donor with excitation wavelength at 320 nm and emission at 405 nm and 2,4-dinitrophenol (Dnp) is a proprietary quencher acceptor. […] Upon cleavage by BACE1, the fluorophore Mca is separated from the quenching group Dnp, restoring the full fluorescence yield of the donor. The increase in fluorescence is linearly related to the rate of proteolysis.
Briefly in a 384-well format recombinant BACE1 protein in a final concentration of 0.04 μg/mL was incubated for 450 minutes at room temperature with 10 μm substrate in incubation buffer (final concentrations: 33.3 mM Citrate buffer pH 5.0, 0.033% PEG, 3% DMSO) in the absence or presence of compound. Next the amount of proteolysis was directly measured by fluorescence measurement at T=0′-120′ and T=450′ (excitation at 320 nm and emission at 405 nm). Results were expressed in RFU (Relative Fluorescence Units), as difference between T450 and Tx (Tx is chosen depending on the reaction speed between 0 and 120 minutes).
(§2) A best-fit curve was fitted by a minimum sum of squares method to the plot of % Controlmin versus compound concentration. From this an IC50 value (inhibitory concentration causing 50% inhibition of activity) can be obtained.

[2] = target: T2, recombinant BACE2 protein (Homo sapiens, UniProt Q9Y5Z0); experiment: BACE2 biochemical FRET based assay; settings: pH 5.0, 450 min at room temperature
T2 construct: recombinant BACE2 protein in a final concentration of 0.4 μg/mL
T2 sequence (Q9Y5Z0 63-518): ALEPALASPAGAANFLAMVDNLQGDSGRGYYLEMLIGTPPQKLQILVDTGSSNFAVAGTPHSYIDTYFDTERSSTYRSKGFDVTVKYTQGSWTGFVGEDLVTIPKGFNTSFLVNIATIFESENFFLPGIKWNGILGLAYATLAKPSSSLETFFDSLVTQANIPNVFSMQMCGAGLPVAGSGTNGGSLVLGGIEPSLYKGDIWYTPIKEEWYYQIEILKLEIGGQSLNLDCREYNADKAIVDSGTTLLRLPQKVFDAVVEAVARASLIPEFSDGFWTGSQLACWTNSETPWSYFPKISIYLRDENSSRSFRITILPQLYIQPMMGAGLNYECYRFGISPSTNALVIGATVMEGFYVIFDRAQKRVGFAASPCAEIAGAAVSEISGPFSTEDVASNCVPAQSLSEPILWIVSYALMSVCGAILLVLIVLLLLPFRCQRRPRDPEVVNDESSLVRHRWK
Text: as §1, with “assay” for “assay is an APP derived 13 amino acids peptide that”, “beta-secretase” for “beta-site secretase”, “the beta-secretase,” for “BACE1,”
Briefly in a 384-well format recombinant BACE2 protein in a final concentration of 0.4 μg/mL was incubated for 450 minutes at room temperature with 10 μM substrate in incubation buffer (final concentrations: 33.3 mM Citrate buffer pH 5.0, 0.033% PEG, 2% DMSO) in the absence or presence of compound. Next the amount of proteolysis was directly measured by fluorescence measurement at T=0 and T=450 (excitation at 320 nm and emission at 405 nm). Results were expressed in RFU (Relative Fluorescence Units), as difference between T450 and T0.
as §2

[3] = Metabolic stability test; assay type: in vitro ADME; settings: human liver microsomes 0.5 mg protein/mL, NADPH, 37° C.
Method: Using a commercially available pooled human liver microsomes, a compound of the present invention was reacted for a constant time, a remaining rate was calculated by comparing a reacted sample and an unreacted sample, thereby, a degree of metabolism in liver was assessed.
A reaction was performed (oxidative reaction) at 37° C. for 0 minute or 30 minutes in the presence of 1 mmol/L NADPH in 0.2 mL of a buffer (50 mmol/L Tris-HCl pH 7.4, 150 mmol/L potassium chloride, 10 mmol/L magnesium chloride) containing 0.5 mg protein/mL of human liver microsomes. After the reaction, 50 μL of the reaction solution was added to 100 μL of a methanol/acetonitrile=1/1 (v/v), mixed and centrifuged at 3000 rpm for 15 minutes. The compound of the present invention in the supernatant was quantified by LC/MS/MS or solid phase extraction (SPE)/MS, and a remaining amount of the compound of the present invention after the reaction was calculated, letting a compound amount at 0 minute reaction time to be 100%.

[4] = target: T3, human ether-a-go-go related gene (hERG) channel (Homo sapiens, UniProt Q12809); experiment: hERG test (whole cell patch clamp, QPatch); assay type: cell-based; settings: CHO cells expressing hERG, tail peak current
T3 construct: expressed in transfected cells; host or cells: CHO cells
T3 sequence (Q12809 whole entry): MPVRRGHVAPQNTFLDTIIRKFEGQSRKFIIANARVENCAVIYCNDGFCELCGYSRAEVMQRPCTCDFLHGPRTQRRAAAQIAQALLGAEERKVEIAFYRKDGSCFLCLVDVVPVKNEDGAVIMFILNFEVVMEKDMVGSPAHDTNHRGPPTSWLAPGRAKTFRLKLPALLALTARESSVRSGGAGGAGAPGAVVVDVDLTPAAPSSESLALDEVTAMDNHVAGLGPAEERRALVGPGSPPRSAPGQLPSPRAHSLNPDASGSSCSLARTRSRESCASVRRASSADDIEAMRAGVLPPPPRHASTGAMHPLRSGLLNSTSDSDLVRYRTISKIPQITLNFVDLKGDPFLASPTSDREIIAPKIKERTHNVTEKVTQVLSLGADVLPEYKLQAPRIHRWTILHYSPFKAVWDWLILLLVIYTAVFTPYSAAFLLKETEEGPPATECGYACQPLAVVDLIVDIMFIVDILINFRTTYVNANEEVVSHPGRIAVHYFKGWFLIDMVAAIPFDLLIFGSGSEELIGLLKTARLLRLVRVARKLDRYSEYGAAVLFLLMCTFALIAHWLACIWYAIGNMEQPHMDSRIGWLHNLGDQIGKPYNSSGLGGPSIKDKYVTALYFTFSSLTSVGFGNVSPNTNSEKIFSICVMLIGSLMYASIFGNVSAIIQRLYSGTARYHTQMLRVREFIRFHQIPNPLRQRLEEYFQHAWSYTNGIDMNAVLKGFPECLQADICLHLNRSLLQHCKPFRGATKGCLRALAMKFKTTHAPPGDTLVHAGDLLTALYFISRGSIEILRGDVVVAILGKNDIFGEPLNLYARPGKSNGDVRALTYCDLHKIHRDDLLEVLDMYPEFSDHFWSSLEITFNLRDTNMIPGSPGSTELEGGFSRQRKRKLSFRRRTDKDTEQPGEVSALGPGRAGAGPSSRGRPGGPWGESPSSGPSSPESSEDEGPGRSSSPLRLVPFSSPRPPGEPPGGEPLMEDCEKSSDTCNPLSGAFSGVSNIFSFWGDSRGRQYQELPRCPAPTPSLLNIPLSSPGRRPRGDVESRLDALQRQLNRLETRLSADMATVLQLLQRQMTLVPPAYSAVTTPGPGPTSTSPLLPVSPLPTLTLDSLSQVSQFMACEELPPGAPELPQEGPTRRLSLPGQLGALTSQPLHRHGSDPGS
Text: For the purpose of assessing risk of an electrocardiogram QT interval prolongation, effects on delayed rectifier K+ current (IKr), which plays an important role in the ventricular repolarization process of the compound of the present invention, was studied using CHO cells expressing human ether-a-go-go related gene (hERG) channel.
A cell was retained at a membrane potential of −80 mV by whole cell patch clamp method using an automated patch clamp system (QPatch; Sophion Bioscience A/S). After application of leak potential at −50 mV, IKr induced by depolarization pulse stimulation at +20 mV for 2 seconds and, further, repolarization pulse stimulation at −50 mV for 2 seconds was recorded.
After the generated current was stabilized, extracellular solution (NaCl: 145 mmol/L, KCl: 4 mmol/L, CaCl2:2 mmol/L MgCl2:1 mmol/L, 1 mmol/L, HEPES (4-(2-hydroxyethyl)-1-piperazineethanesulfonic acid: 10 mmol/L, glucose:10 mmol/L pH=7.4) in which the compound of the present invention have been dissolved at an objective concentration was applied to the cell under the room temperature condition for 10 minutes. From the recording IKr, an absolute value of the tail peak current was measured based on the current value at the resting membrane potential using an analysis software (QPatch assay software; Sophion Bioscience A/S). Further, the % inhibition relative to the tail peak current before application of the compound of the present invention was calculated, and compared with the vehicle-applied group (0.1% dimethyl sulfoxide solution) to assess influence of the compound of the present invention on IKr.

[5] = target: T4, P-gp (MDR1 expressing LLC-PK1 cells) (Homo sapiens, UniProt P08183); experiment: P-gp substrate test; assay type: in vitro ADME; settings: MDR1 expressing LLC-PK1 cells vs parent LLC-PK1 cells
T4 construct: host or cells: LLC-PK1 (porcine kidney) cells
T4 sequence (P08183 whole entry): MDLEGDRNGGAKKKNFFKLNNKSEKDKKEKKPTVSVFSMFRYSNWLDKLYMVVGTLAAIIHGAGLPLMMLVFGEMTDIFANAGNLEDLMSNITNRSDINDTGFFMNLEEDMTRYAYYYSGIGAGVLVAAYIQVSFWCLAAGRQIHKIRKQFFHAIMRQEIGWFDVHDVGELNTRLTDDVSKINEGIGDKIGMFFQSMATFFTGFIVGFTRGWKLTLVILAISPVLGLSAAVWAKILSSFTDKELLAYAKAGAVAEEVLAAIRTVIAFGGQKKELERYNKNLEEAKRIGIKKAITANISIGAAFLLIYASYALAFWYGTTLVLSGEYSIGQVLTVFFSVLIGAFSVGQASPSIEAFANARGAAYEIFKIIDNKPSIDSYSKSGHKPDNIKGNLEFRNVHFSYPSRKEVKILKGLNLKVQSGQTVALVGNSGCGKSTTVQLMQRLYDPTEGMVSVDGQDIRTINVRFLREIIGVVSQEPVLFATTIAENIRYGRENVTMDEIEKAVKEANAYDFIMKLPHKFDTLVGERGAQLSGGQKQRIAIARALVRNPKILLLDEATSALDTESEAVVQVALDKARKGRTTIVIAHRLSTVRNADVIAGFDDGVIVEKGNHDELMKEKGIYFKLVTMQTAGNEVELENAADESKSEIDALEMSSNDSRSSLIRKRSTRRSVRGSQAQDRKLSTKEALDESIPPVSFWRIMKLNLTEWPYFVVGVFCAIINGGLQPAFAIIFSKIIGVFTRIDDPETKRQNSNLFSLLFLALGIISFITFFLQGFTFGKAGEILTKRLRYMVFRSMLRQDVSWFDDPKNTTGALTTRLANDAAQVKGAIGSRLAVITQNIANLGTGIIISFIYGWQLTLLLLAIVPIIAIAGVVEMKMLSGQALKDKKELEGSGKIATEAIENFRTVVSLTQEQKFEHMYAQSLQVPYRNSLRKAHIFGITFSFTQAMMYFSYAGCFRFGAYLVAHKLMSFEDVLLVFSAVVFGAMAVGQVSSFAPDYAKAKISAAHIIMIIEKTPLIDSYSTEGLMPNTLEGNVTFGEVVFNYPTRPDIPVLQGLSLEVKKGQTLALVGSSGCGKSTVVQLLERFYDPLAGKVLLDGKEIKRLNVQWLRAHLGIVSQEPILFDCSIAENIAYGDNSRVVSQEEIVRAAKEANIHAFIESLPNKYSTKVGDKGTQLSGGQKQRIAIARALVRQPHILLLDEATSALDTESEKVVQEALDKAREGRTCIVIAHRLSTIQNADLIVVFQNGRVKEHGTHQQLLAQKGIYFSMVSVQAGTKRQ
Method: 1. MDR1 expressing LLC-PK1 cells and its parent cells were routinely cultured in Medium A (Medium 199 (Invitrogen) supplemented with 10% FBS (Invitrogen), gentamycin (0.05 mg/mL, Invitrogen) and hygromycin B (100 μg/mL, Invitrogen)) at 37° C. under 5% CO2/95% 02 gasses. For the transport experiments, these cells were seeded on Transwell (Registered trademark) insert (96-well, pore size: 0.4 μm, Coaster) at a density of 1.4×10^4 cells/insert and added Medium B (Medium 199 supplemented with 10% FBS and gentamycin at 0.05 mg/mL) to the feeder tray. These cells were incubated in a CO2 incubator (5% CO2/95% 02 gasses, 37° C.) and replace apical and basolateral culture medium every 48-72 hr after seeding. These cells were used between 4 and 6 days after seeding. 2. The medium in the culture insert seeded with MDR1 expressing cells or parent cells were removed by aspiration and rinsed by HBSS. The apical side (140 μL) or basolateral side (175 μL) was replaced with transport buffer containing reference substrates and the present invention and then an aliquot (50 μL) of transport buffer in the donor side was collected to estimate initial concentration of reference substrate and the present invention. After incubation for designed time at 37° C., an aliquot (50 μL) of transport buffer in the donor and receiver side were collected. Assay was performed by duplicate or triplicate. 3. Reference substrate and the present invention in the aliquot was quantified by LC/MS/MS.
Permeated amounts across monolayers of MDR1 expressing and parent cells were determined, and permeation coefficients (Pe) were calculated using Excel 2003 from the following equitation:
Pe (cm/sec)=Permeated amount (pmol)/area of cell membrane (cm^2)/initial concentration (nM)/incubation time (sec) Where, permeated amount was calculated from permeation concentration (nM, concentration of the receiver side) of the substance after incubation for the defined time (sec) multiplied by volume. (mL) and area of cell membrane was used 0.1433 (cm2). The efflux ratio was calculated using the following equation:
Efflux Ratio=Basolateral-to-Apical Pe/Apical-to-Basolateral Pe
The net flux was calculated using the following equation:
Net flux=Efflux Ratio in MDR1 expressing cells/Efflux Ratio in parent cells

Selectivity [1]	IC50 [1]	IC50 [2]	Remaining rate (%) at 30 min [3]	P-gp ER ratio [5]	SMILES	hERG inhibition (%) at 3 μM [4]
223	44.7 nM	10000 nM	–	–	Cn1cc([C@@H]2OC[C@H]3OC(N)=N[C@](C)(c4cc(NC(=O)c5cnc(OCF)cn5)ccc4F)[C@H]32)cn1 [Compound I-014]	–
62.3	5.7 nM	355 nM	–	–	C[C@]1(c2cc(NC(=O)c3ccc(C#N)cn3)ccc2F)N=C(N)O[C@@H]2CO[C@@H](C(F)(F)F)[C@@H]21 [Compound I-016]	–
38.1	1.2 nM	45.7 nM	–	–	C[C@]1(c2cc(NC(=O)c3ccc(C#N)cn3)ccc2F)N=C(N)O[C@@H]2CO[C@@H](CC(F)F)[C@@H]21 [Compound I-018]	–
60.2	4.07 nM	245 nM	–	–	C[C@]1(c2cc(NC(=O)c3cnc(OCF)cn3)ccc2F)N=C(N)O[C@@H]2CO[C@@H](CC(F)F)[C@@H]21 [Compound I-019]	–
21.4	2.19 nM	46.8 nM	–	–	C[C@]1(c2cc(NC(=O)c3ccc(C#N)cn3)ccc2F)N=C(N)O[C@@H]2CO[C@@H](CCF)[C@@H]21 [Compound I-020]	–
37.1	8.51 nM	316 nM	–	–	C[C@]1(c2cc(NC(=O)c3cnc(OCF)cn3)ccc2F)N=C(N)O[C@@H]2CO[C@@H](CCF)[C@@H]21 [Compound I-021]	–
27.5	24 nM	661 nM	–	–	C[C@]1(c2cc(NC(=O)c3cnc(OCF)cn3)ccc2F)N=C(N)O[C@@H]2CO[C@@H](C(F)F)[C@@H]21 [Compound I-022]	–
51.2	4.79 nM	245 nM	–	–	CC[C@@H]1OC[C@H]2OC(N)=N[C@](C)(c3cc(NC(=O)c4cnc(OCF)cn4)ccc3F)[C@@H]12 [Compound I-023]	–
9.3	1.26 nM	11.7 nM	–	–	CC(C)CCC[C@@H]1OC[C@H]2OC(N)=N[C@](C)(c3cc(NC(=O)c4cnc(OCF)cn4)ccc3F)[C@@H]12 [Compound I-025]	–
87.1	6.76 nM	589 nM	–	–	CC(C)C[C@@H]1OC[C@H]2OC(N)=N[C@](C)(c3cc(NC(=O)c4cnc(OCF)cn4)ccc3F)[C@@H]12 [Compound I-028]	–
191	22.9 nM	4370 nM	–	–	CC(C)C[C@@H]1OC[C@H]2OC(N)=N[C@](C)(c3cc(NC(=O)c4cnc(OC[C@@H](C)F)cn4)ccc3F)[C@@H]12 [Compound I-029]	–
151	66.1 nM	10000 nM	–	–	C[C@@H](F)COc1cnc(C(=O)Nc2ccc(F)c([C@@]3(C)N=C(N)O[C@@H]4CO[C@@H](C(F)(F)F)[C@@H]43)c2)cn1 [Compound I-030]	–
282	12 nM	3390 nM	–	–	Cc1noc(C)c1[C@@H]1OC[C@H]2OC(N)=N[C@](C)(c3cc(NC(=O)c4cnc(OCF)cn4)ccc3F)[C@H]21 [Compound I-031]	–
63.1	5.01 nM	316 nM	–	–	C[C@H]1OC[C@H]2[C@@H]1OC(N)=N[C@]2(CF)c1cc(NC(=O)c2cnc(-n3cncn3)cn2)ccc1F [Compound I-051]	–
–	–	–	52%	3.8	C[C@H]1OC[C@H]2[C@@H]1OC(N)=N[C@]2(CF)c1cc(NC(=O)c2cnc(OCF)cn2)cc(F)c1F [Compound I-070]	9.4%
–	–	–	85%	5.8	C[C@@H]1OC[C@H]2[C@@H]1OC(N)=N[C@]2(CF)c1cc(NC(=O)c2cnc(OC(F)F)cn2)ccc1F [Compound I-087]	28.7%
23.4	7.6 nM	178 nM	–	–	NC1=N[C@](CF)(c2cc(NC(=O)c3cnc(OCF)cn3)ccc2F)[C@@H]2COCC[C@H]2O1 [II-017]	–
